Series [1] has as its target T1, M. tuberculosis InhA (Mycobacterium tuberculosis, UniProt P9WGR1).
T1 construct: made in house; host or cells: E. coli
The series is described as follows: InhA enzymatic inhibition assay (NADH oxidation at 340 nm). Type of series: biochemical.

In series [2] the test system is Mycobacterium tuberculosis. As to conditions: cited from earlier work.
In series [3] the target is enoyl-acyl carrier protein reductase InhA enzyme. More on the design: method as in PMID 32987135. As to conditions: cited from earlier work.
Setting [4] is: 70 nM InhA, 2 h pre-incubation, 25 °C, pH 6.8, read-out: InhA inhibition IC50.

This is an account of results in publication PMC9316523, “Design, Synthesis and Molecular Docking of Novel Acetophenone-1,2,3-Triazoles Containing Compounds as Potent Enoyl-Acyl Carrier Protein Reductase (InhA) Inhibitors” (Pharmaceuticals, 2022).

SMILES strings stand for the structures. Values after ≈ are worked out from the molar mass of the structure shown. Read-outs that look alike come from different tables or passages of the source.

The term IC50 denotes the concentration needed to halve the response being measured. What is called inhibition is the relative decrease from the control value, in per cent. High values mean a response far below the control, low ones a response near the control. Usually melting point stands for the temperature, or range, at which the solid turns liquid. As usually defined, the MIC is the lowest concentration found to suppress growth.

T1 sequence (P9WGR1 whole entry, looked up): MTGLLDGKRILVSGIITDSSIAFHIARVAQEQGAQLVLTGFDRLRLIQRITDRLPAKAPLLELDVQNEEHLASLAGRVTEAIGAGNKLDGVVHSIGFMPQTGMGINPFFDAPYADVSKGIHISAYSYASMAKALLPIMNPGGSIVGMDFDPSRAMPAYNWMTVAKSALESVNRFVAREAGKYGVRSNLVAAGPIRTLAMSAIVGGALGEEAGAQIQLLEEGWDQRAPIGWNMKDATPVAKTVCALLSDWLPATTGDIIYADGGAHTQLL

Molecule `CC(=O)c1ccc(OCc2cn(CC(=O)Nc3ccccc3F)nn2)cc1` [Compound 9, 2-(4-((4-Acetylphenoxy)methyl)-1H-1,2,3-triazol-1-Yl)-N-(2-fluorophenyl)acetamide] registered a melting point of 179 to 180 °C. In series [1], this molecule had an IC50 of 5 nM and an inhibition at 10 µM of 100%.
Molecule `CC(=O)c1ccc(OCc2cn(CC(=O)Nc3ccc([N+](=O)[O-])cc3)nn2)cc1` [Compound 10, 2-(4-((4-Acetylphenoxy)methyl)-1H-1,2,3-triazol-1-Yl)-N-(4-nitrophenyl)acetamide] gave a melting point of 185 to 186 °C. In addition, in series [1], the IC50 was found to be 8 nM and at 10 µM the inhibition was 100%.
Turning to `CC(=O)c1ccc(OCc2cn(CC(=O)Nc3ccc(Cl)c(Cl)c3)nn2)cc1` [Compound 11, 2-(4-((4-Acetylphenoxy)methyl)-1H-1,2,3-triazol-1-Yl)-N-(3,4-dichlorophenyl)acetamide], the melting point lay in the range of 205 to 206 °C. In addition, the IC50 in series [1] (setting [4]) amounted to 43 nM. Further, the inhibition at 10 µM in series [1] was determined as 100%.
In turn, `CC(=O)c1ccc(OCc2cn(CC(=O)NCc3ccc(F)cc3)nn2)cc1` [Compound 12, 2-(4-((4-Acetylphenoxy)methyl)-1H-1,2,3-triazol-1-Yl)-N-(4-fluorobenzyl)acetamide] displayed a melting point of 165 to 166 °C. The IC50 in series [1] (setting [4]) came out at 41 nM. The molecule further showed an inhibition at 10 µM in series [1] of 100%.
Turning to `CC(=O)c1ccc(OCc2cn(CC(=O)NCc3ccc(C)cc3)nn2)cc1` [Compound 13, 2-(4-((4-Acetylphenoxy)methyl)-1H-1,2,3-triazol-1-Yl)-N-(4-methylbenzyl)acetamide], the melting point fell in the range of 180 to 182 °C. Besides, the IC50 in series [1] (setting [4]) worked out at 84 nM. Besides, the inhibition at 10 µM in series [1] is 100%.
Take `COc1ccc(CNC(=O)Cn2cc(COc3ccc(C(C)=O)cc3)nn2)cc1` [Compound 14, 2-(4-((4-Acetylphenoxy)methyl)-1H-1,2,3-triazol-1-Yl)-N-(4-methoxybenzyl)acetamide]: the melting point is 125 to 126 °C. In addition, in series [1], half-maximal inhibition (IC50) was put at 2 nM and 10 µM produced 100% inhibition.
`Clc1ccc(OCc2cn(Cc3ccc(Br)cc3)nn2)cc1` [Lead structure A]: the MIC in series [2] is 5.8 µg/mL (≈ 15.3 µM).
`CC[C@H](CO)C(=O)c1ccc(OCc2ccccc2)cc1O` [Lead structure B]: the IC50 in series [3] is 380 nM.
For the molecule `COc1ccccc1NC(=O)Cn1cc(COc2ccc3c(c2)CCC3)nn1` [Lead structure C], the MIC in series [2] is 6.25 µg/mL (≈ 16.5 µM).
In the case of `O=C(Cn1cc(-c2ccccc2)nn1)Nc1ccccc1` [Lead structure D], the MIC in series [2] is 0.08 µg/mL (≈ 0.287 µM).
`CO[C@H]1/C=C/O[C@@]2(C)Oc3c(C)c(O)c4c(O)c(c(/C=N/N5CCN(C)CC5)c(O)c4c3C2=O)NC(=O)/C(C)=C\C=C\[C@H](C)[C@H](O)[C@@H](C)[C@@H](O)[C@@H](C)[C@H](OC(C)=O)[C@@H]1C` [Rifampicin, reference compound]: the IC50 in series [1] (setting [4]) stood at 8500 nM. The molecule also showed an inhibition at 10 µM in series [1] of 58.8%.
